# Where two headings read alike, the source gives them in different places.
# Assays:
# [1] = test system: three-way cross weaned pigs; assay: Growth promoting effect test on weaned pigs; format: in vivo, pig; details: 100 ppm in feed, 30 days; for Total Feed Consumption / Total Weight Gain: 30 per group
# black carps = assay: Application in aquatic feed (black carp growth test); format: in vivo; details: for average weight gain improved compared with the control group / feed conversion rate (FCR) / feed conversion rate reduced compared with the control group / final weight / weight gain: 100 ppm in feed, black carps, 8 weeks
# [2] = test system: Lingnan yellow big chicken; assay: Comparison of chicken growth promoting effects of p-thymol, thymol and carvacrol; format: in vivo; details: 100 ppm in feed, 1 to 21-day-old chickens; for Total Feed Consumption / Total Weight Gain: 50 per group
# [3] = Volatility comparison under reduced-pressure drying; details: for weight remained after reduced-pressure drying: initial weight 10.0 g
# Wistar rats = assay: Rat oral LD50 measurement (improved Karber's method); format: in vivo
# salmonella bacillus = format: cell-based
# Chemy Valley ducks = assay: Growth promoting effect test on ducks; format: in vivo, duck; details: 100 ppm in feed, 1 to 46-day-old ducks; for Total Feed Consumption / Total Weight Gain: 100 per group
# staphylococcus aureus = assay: In-vitro antibacterial activity, tube double dilution method; format: cell-based
# salmonella choleraesuis = assay: as above; format: cell-based
# rats = details: rat, in vivo; cited from earlier work
# escherichia coli = assay: In-vitro antibacterial activity, tube double dilution method; format: cell-based
# [4] = Changes in chicken complete formula feed during preservation (gas chromatography); details: 25-30° C., initial 100 ppm
# clostridium perfringens = format: cell-based
# salmonella gallinarum = format: cell-based
# [5] = rat, oral, preliminary experiment
# [6] = salmonella choleraesuis CEC19940141
# [7] = salmonella choleraesuis CEC19940146
# [8] = clostridium perfringens CAU0591
# [9] = clostridium perfringens CAU0795
# [10] = clostridium perfringens CAU0855
# [11] = clostridium perfringens CAU0859
# [12] = clostridium perfringens HNAU160
# [13] = clostridium perfringens HNAU166
structure (smiles),measurement,setting,value
"Cc1ccc(C(C)C)cc1O [carvacrol, 2-methyl-5-isopropyl-phenol]",Feed Conversion Rate,[1],2.336
same,Survival Rate,[1],100%
same,feed conversion rate reduced compared with the control group,[1],0.085
same,relative weight gain rate improved compared with the control group,[1],4.69%
same,Total Feed Consumption,[1],798.1 kg
same,Total Weight Gain,[1],341.7 kg
same,Relative Weight Gain Rate,[1]; control = 100,104.69%
same,average weight gain improved compared with the control group,black carps,3.52%
same,feed conversion rate (FCR),black carps,1.45 ± 0.06
same,feed conversion rate reduced compared with the control group,black carps,2.68%
same,final weight,black carps,598.08 ± 27.11 g
same,weight gain,black carps,138.0 ± 7.78%
same,survival rate (SR),black carps; in vivo,100%
same,Average Weight Gain,[2],332.9 g
same,Feed Conversion Rate,[2],1.761
same,Survival Rate,[2],100%
same,feed conversion rate reduced compared with the control group,[2],0.021
same,relative weight gain rate improved compared with the control group,[2],3.19%
same,Total Feed Consumption,[2],29.32 kg
same,Total Weight Gain,[2],16.65 kg
same,Relative Weight Gain Rate,[2]; control = 100,103.19%
same,weight remained after reduced-pressure drying,"[3]; 50° C., 1 hour",4.84 g
same,weight remained after reduced-pressure drying,"[3]; 70° C., 1 hour",0 g
same,weight remained after reduced-pressure drying,"[3]; 90° C., 1 hour",0 g
same,volatilization (in words),[3]; reduced-pressure drying within 1 hour at 70° C. and over,completely volatilized
same,Toxicity Judgment,Wistar rats; rat oral LD50 grading,relative
same,LD50,"Wistar rats; rat, oral, observed 7 days",6400 mg/kg weight
same,Dm (dose causing 100% death),Wistar rats; [5],1800 mg/kg weight
same,Dn (dose causing 0% death),Wistar rats; [5],400 mg/kg weight
same,Inhibiting Activity (minimum bacteria inhibiting concentration),salmonella bacillus,250 µg/mL
same,Feed Conversion Rate,Chemy Valley ducks,2.739
same,Survival Rate,Chemy Valley ducks,100%
same,feed conversion rate reduced compared with the control group,Chemy Valley ducks,0.049
same,relative weight gain rate improved compared with the control group,Chemy Valley ducks,2.51%
same,Total Feed Consumption,Chemy Valley ducks,928.3 kg
same,Total Weight Gain,Chemy Valley ducks,338.9 kg
same,Relative Weight Gain Rate,Chemy Valley ducks; control = 100,102.51%
same,Inhibiting Activity (minimum bacteria inhibiting concentration),staphylococcus aureus; s. aureus CAU0804,500 µg/mL
same,Inhibiting Activity (minimum bacteria inhibiting concentration),staphylococcus aureus; s. aureus CAU0810,250 µg/mL
same,Inhibiting Activity (minimum bacteria inhibiting concentration),staphylococcus aureus; s. aureus CAU0837,250 µg/mL
same,Inhibiting Activity (minimum bacteria inhibiting concentration),staphylococcus aureus; s. aureus CAU0866,250 µg/mL
same,Inhibiting Activity (minimum bacteria inhibiting concentration),staphylococcus aureus; s. aureus CAU0868,250 µg/mL
same,Inhibiting Activity (minimum bacteria inhibiting concentration),staphylococcus aureus; s. aureus CAU0869,250 µg/mL
same,Inhibiting Activity (minimum bacteria inhibiting concentration),staphylococcus aureus; s. aureus CAU0871,250 µg/mL
same,Inhibiting Activity (minimum bacteria inhibiting concentration),salmonella choleraesuis; [6],500 µg/mL
same,Inhibiting Activity (minimum bacteria inhibiting concentration),salmonella choleraesuis; [7],250 µg/mL
same,oral median lethal dose (LD50) of rats,rats,810 mg/kg weight
same,Inhibiting Activity (minimum bacteria inhibiting concentration),escherichia coli; escherichia coli CAU0020,250 µg/mL
same,Inhibiting Activity (minimum bacteria inhibiting concentration),escherichia coli; escherichia coli CAU0053,500 µg/mL
same,Inhibiting Activity (minimum bacteria inhibiting concentration),escherichia coli; escherichia coli CAU0147,250 µg/mL
same,Inhibiting Activity (minimum bacteria inhibiting concentration),escherichia coli; escherichia coli CAU0159,250 µg/mL
same,Inhibiting Activity (minimum bacteria inhibiting concentration),escherichia coli; escherichia coli CAU0195,500 µg/mL
same,concentration measured after extraction from the complete formula feed,[4]; 1 day,99.6 ppm
same,concentration measured after extraction from the complete formula feed,[4]; 15 days,87.7 ppm
same,concentration measured after extraction from the complete formula feed,[4]; 30 days,73.1 ppm
same,concentration measured after extraction from the complete formula feed,[4]; 45 days,58.5 ppm
same,concentration measured after extraction from the complete formula feed,[4]; 60 days,42.6 ppm
same,Inhibiting Activity (minimum bacteria inhibiting concentration),clostridium perfringens; [8],500 µg/mL
same,Inhibiting Activity (minimum bacteria inhibiting concentration),clostridium perfringens; [9],250 µg/mL
same,Inhibiting Activity (minimum bacteria inhibiting concentration),clostridium perfringens; [10],500 µg/mL
same,Inhibiting Activity (minimum bacteria inhibiting concentration),clostridium perfringens; [11],500 µg/mL
same,Inhibiting Activity (minimum bacteria inhibiting concentration),clostridium perfringens; [12],500 µg/mL
same,Inhibiting Activity (minimum bacteria inhibiting concentration),clostridium perfringens; [13],250 µg/mL
same,Inhibiting Activity (minimum bacteria inhibiting concentration),salmonella gallinarum; salmonella gallinarum CAU0205,250 µg/mL
same,Inhibiting Activity (minimum bacteria inhibiting concentration),salmonella gallinarum; salmonella gallinarum CAU0206,500 µg/mL
same,Inhibiting Activity (minimum bacteria inhibiting concentration),salmonella gallinarum; salmonella gallinarum QAU0399,500 µg/mL
"Cc1ccc(C(C)C)c(O)c1 [thymol, 5-methyl-2-isopropyl-phenol]",Feed Conversion Rate,[1],2.324
same,Survival Rate,[1],100%
same,feed conversion rate reduced compared with the control group,[1],0.097
same,Total Feed Consumption,[1],796.3 kg
same,Total Weight Gain,[1],342.6 kg
same,average weight gain improved compared with the control group,black carps,4.53%
same,feed conversion rate (FCR),black carps,1.44 ± 0.08
same,feed conversion rate reduced compared with the control group,black carps,3.36%
same,final weight,black carps,601.58 ± 28.02 g
same,weight gain,black carps,139.29 ± 7.37%
same,Average Weight Gain,[2],334.8 g
same,Feed Conversion Rate,[2],1.756
same,Survival Rate,[2],100%
same,feed conversion rate reduced compared with the control group,[2],0.026
same,Total Feed Consumption,[2],29.40 kg
same,Total Weight Gain,[2],16.74 kg
same,weight remained after reduced-pressure drying,"[3]; 50° C., 1 hour",6.12 g
same,weight remained after reduced-pressure drying,"[3]; 70° C., 1 hour",1.02 g
same,weight remained after reduced-pressure drying,"[3]; 90° C., 1 hour",0 g
same,volatilized part,"[3]; reduced-pressure drying 70° C., 1 hour",89.8%
same,Inhibiting Activity (minimum bacteria inhibiting concentration),salmonella bacillus,250 µg/mL
same,Feed Conversion Rate,Chemy Valley ducks,2.726
same,Survival Rate,Chemy Valley ducks,100%
same,feed conversion rate reduced compared with the control group,Chemy Valley ducks,0.062
same,Total Feed Consumption,Chemy Valley ducks,940.7 kg
same,Total Weight Gain,Chemy Valley ducks,345.1 kg
same,Inhibiting Activity (minimum bacteria inhibiting concentration),staphylococcus aureus; s. aureus CAU0804,500 µg/mL
same,Inhibiting Activity (minimum bacteria inhibiting concentration),staphylococcus aureus; s. aureus CAU0810,125 µg/mL
same,Inhibiting Activity (minimum bacteria inhibiting concentration),staphylococcus aureus; s. aureus CAU0837,250 µg/mL
same,Inhibiting Activity (minimum bacteria inhibiting concentration),staphylococcus aureus; s. aureus CAU0866,250 µg/mL
same,Inhibiting Activity (minimum bacteria inhibiting concentration),staphylococcus aureus; s. aureus CAU0868,250 µg/mL
same,Inhibiting Activity (minimum bacteria inhibiting concentration),staphylococcus aureus; s. aureus CAU0869,125 µg/mL
same,Inhibiting Activity (minimum bacteria inhibiting concentration),staphylococcus aureus; s. aureus CAU0871,250 µg/mL
same,Inhibiting Activity (minimum bacteria inhibiting concentration),salmonella choleraesuis; [6],250 µg/mL
same,Inhibiting Activity (minimum bacteria inhibiting concentration),salmonella choleraesuis; [7],250 µg/mL
same,Inhibiting Activity (minimum bacteria inhibiting concentration),escherichia coli; escherichia coli CAU0020,250 µg/mL
same,Inhibiting Activity (minimum bacteria inhibiting concentration),escherichia coli; escherichia coli CAU0053,250 µg/mL
same,Inhibiting Activity (minimum bacteria inhibiting concentration),escherichia coli; escherichia coli CAU0147,250 µg/mL
same,Inhibiting Activity (minimum bacteria inhibiting concentration),escherichia coli; escherichia coli CAU0159,250 µg/mL
same,Inhibiting Activity (minimum bacteria inhibiting concentration),escherichia coli; escherichia coli CAU0195,250 µg/mL
same,concentration measured after extraction from the complete formula feed,[4]; 1 day,100.4 ppm
same,concentration measured after extraction from the complete formula feed,[4]; 15 days,90.2 ppm
same,concentration measured after extraction from the complete formula feed,[4]; 30 days,78.9 ppm
same,concentration measured after extraction from the complete formula feed,[4]; 45 days,63.7 ppm
same,concentration measured after extraction from the complete formula feed,[4]; 60 days,49.7 ppm
same,Inhibiting Activity (minimum bacteria inhibiting concentration),clostridium perfringens; [8],250 µg/mL
same,Inhibiting Activity (minimum bacteria inhibiting concentration),clostridium perfringens; [9],250 µg/mL
same,Inhibiting Activity (minimum bacteria inhibiting concentration),clostridium perfringens; [10],250 µg/mL
same,Inhibiting Activity (minimum bacteria inhibiting concentration),clostridium perfringens; [11],250 µg/mL
same,Inhibiting Activity (minimum bacteria inhibiting concentration),clostridium perfringens; [12],500 µg/mL
same,Inhibiting Activity (minimum bacteria inhibiting concentration),clostridium perfringens; [13],250 µg/mL
same,Inhibiting Activity (minimum bacteria inhibiting concentration),salmonella gallinarum; salmonella gallinarum CAU0205,500 µg/mL
same,Inhibiting Activity (minimum bacteria inhibiting concentration),salmonella gallinarum; salmonella gallinarum CAU0206,250 µg/mL
same,Inhibiting Activity (minimum bacteria inhibiting concentration),salmonella gallinarum; salmonella gallinarum QAU0399,500 µg/mL
